# Source: patent US20230363954A1, “METHOD FOR MAKING AN ABSORBENT ARTICLE AND ABSORBENT ARTICLE” (The Procter & Gamble Company, priority 2022, published 2023)
# Read-outs that look alike come from different tables or passages of the source.
# Biological target: T1, Jack Bean Urease (Canavalia ensiformis, UniProt P07374)
# T1 construct: purchased Millipore Sigma U1500
# Assay type: biochemical
# Settings: for Urease inhibition (in words): 0.1 g in synthetic urine with urease
# Experimental: To test the efficiency of different Green Tea Extracts, three different samples were tested: • Sample 1′: pure EGCG: Cas. […] 84650-60-2, EC no. […] The test procedure per sample and for a reference without Green Tea Extract was the following, all steps were performed at ambient lab temperature (23±1° C.) and atmospheric pressure:
# Synthetic Urine is prepared by dissolving 2% w/w urea, 0.9% w/w sodium chloride, 0.11% w/w magnesium sulfate monohydrate, 0.079% w/w calcium chloride monohydrate in deionized water. Urease stock solution (23.5 U/ml) is made by dissolving Jack Bean Urease (Catalog number U1500, Millipore Sigma, St. Louis, MO, USA, or equivalent) in deionized water.
# 67.5 ml of Synthetic urine were added to a beaker and the pH of the Synthetic urine (Urine pH) was determined analogously to the Urease Activity test method described above (Urine pH).
# 0.1 g of the corresponding Green Tea Extract—except for the reference sample—were added to the beaker and the solution stirred for 15 min. Afterwards the pH of the solution is determined.
# 7.5 ml of the Urease stock solution were added and the pH was monitored, while the stirring of the solution was maintained.
# From the values, the difference in pH mediated by Urease was calculated from the difference of the pH of the Synthetic urine and the final pH determined after addition of the Urease stock.
# T1 sequence (P07374 whole entry, looked up): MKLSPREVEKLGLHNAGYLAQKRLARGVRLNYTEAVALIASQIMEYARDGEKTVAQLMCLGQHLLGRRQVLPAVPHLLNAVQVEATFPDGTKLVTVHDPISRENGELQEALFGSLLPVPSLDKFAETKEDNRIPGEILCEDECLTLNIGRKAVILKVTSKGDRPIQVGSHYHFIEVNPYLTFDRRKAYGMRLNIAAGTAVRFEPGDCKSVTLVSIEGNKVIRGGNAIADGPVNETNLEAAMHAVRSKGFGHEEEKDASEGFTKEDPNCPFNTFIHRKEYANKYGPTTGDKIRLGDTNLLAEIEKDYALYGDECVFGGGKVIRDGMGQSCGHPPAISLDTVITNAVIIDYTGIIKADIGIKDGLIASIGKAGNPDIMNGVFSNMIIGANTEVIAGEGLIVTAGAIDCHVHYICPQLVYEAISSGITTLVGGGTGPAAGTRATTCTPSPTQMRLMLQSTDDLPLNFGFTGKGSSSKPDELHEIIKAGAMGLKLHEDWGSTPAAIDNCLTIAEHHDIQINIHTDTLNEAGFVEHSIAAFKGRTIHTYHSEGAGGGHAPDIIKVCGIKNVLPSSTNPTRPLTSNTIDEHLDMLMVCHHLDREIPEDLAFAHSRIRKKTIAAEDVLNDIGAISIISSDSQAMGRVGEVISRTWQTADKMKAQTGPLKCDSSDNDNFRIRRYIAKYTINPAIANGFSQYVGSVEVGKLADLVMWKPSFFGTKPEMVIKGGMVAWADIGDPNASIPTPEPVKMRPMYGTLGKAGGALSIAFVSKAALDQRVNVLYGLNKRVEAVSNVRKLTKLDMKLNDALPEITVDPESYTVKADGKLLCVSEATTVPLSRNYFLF
smiles,measurement,setting,value
"O=C(O[C@@H]1Cc2c(O)cc(O)cc2O[C@@H]1c1cc(O)c(O)c(O)c1)c1cc(O)c(O)c(O)c1 [Sample 1′, Epigallocatechin gallate]",Green Tea pH,"0.1 g in 67.5 ml Synthetic urine, stirred 15 min, before urease addition",5.7
same,Urease inhibition (in words),,inhibit Urease
same,Urease inhibition (in words),listed as EGCG,less efficient in its pure form
same,End pH,"after adding 7.5 ml Urease stock solution (23.5 U/ml), pH stabilized (typically 15 to 30 min)",7.7
same,pH difference,final pH minus pH of the Synthetic urine,1.2
